Earlier results on 1 compound are cited in US20100080856A1, “Method and composition for postoperative wound healing” (priority 2008, published 2010).

This series relates to wound healing in severe burn patients. The settings on record: oral administration, Crit Care Med. 2000, Vol 28, No. 6, 1772-1776.

Regarding `NCCC[C@H](N)C(=O)O.NCCC[C@H](N)C(=O)O.O=C(O)CCC(=O)C(=O)O` [ornithine α-ketoglutarate], the wound healing time result was “shortens the wound healing time”.
